In ChEMBL document CHEMBL4673401 (ACS Med Chem Lett, 2021):
Values belong to the compound of their own block, whether it stands above or below them.

Experiments:
MC-38 [1] = experiment: Antitumor activity against mouse MC38 cells xenograted in humanized PD-1 mouse assessed as tumor growth inhibition at 150 mg/kg, po bid for 14 days in combination with PD-1 antibody at 3 mg/kg, ip qod for 8 days by digital caliper method relative to control; format: functional; settings: MC-38, 336 h, time 14 day, read-out: TGI
MC-38 [2] = experiment: Antitumor activity against mouse MC38 cells xenograted in humanized PD-1 mouse assessed as tumor growth inhibition at 600 mg/kg, po bid for 14 days in combination with PD-1 antibody at 3 mg/kg, ip qod for 8 days by digital caliper method relative to control; format: functional; settings: MC-38, 336 h, time 14 day, read-out: TGI
Cytochrome P450 1A2 = molecular target: T1, Cytochrome P450 1A2 (Homo sapiens, UniProt P05177); experiment: Inhibition of CYP1A2 in human liver microsomes using phenacetin as substrate incubated for 10 mins in presence of NADPH by UHPLC-MS/MS analysis; format: ADME
T1 sequence (P05177 whole entry): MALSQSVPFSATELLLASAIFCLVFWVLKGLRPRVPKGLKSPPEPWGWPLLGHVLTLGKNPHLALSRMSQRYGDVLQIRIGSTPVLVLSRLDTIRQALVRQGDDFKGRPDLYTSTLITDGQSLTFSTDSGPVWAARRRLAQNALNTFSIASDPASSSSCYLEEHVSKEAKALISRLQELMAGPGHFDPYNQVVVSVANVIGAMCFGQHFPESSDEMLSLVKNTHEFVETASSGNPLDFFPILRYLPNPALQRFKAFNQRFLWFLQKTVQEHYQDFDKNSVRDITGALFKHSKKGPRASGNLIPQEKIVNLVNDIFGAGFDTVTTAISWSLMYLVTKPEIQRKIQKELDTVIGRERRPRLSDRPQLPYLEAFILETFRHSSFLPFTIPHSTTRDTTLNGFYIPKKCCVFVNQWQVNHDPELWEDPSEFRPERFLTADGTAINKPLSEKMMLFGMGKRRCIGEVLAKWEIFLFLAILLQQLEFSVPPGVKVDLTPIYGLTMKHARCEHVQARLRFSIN

Cytochrome P450 2C19 = Cytochrome P450 2C19 (Homo sapiens, UniProt P33261); experiment: Inhibition of CYP2C19 in human liver microsomes using S-mephenytoin as substrate incubated for 10 mins in presence of NADPH by UHPLC-MS/MS analysis; format: ADME; settings: read-out: INH
[3] = Clearance in Sprague-Dawley rat at 3 mg/kg, po measured up to 24 hrs; format: ADME, organism-based; settings: in vivo
[4] = AUC in C57BL/6 mouse at 3 mg/kg, po measured up to 24 hrs; format: ADME, organism-based; parameters: route oral, dose 3 mg/kg, time <=24; settings: in vivo
[5] = molecular target: T2, Indoleamine 2,3-dioxygenase 1 (Homo sapiens, UniProt P14902); experiment: Inhibition of IDO1 in IFNgamma-stimulated human HeLa cells using L-tryptophan as substrate measured after 48 hrs
Cytochrome P450 3A4 = Cytochrome P450 3A4 (Homo sapiens, UniProt P08684); experiment: Inhibition of CYP3A4 in human liver microsomes using midazolam as substrate incubated for 10 mins in presence of NADPH by UHPLC-MS/MS analysis; format: ADME
Cytochrome P450 2D6 = Cytochrome P450 2D6 (Homo sapiens, UniProt P10635); experiment: Inhibition of CYP2D6 in human liver microsomes using dextromethorphan as substrate incubated for 10 mins in presence of NADPH by UHPLC-MS/MS analysis; format: ADME
[6] = Protein binding in dog plasma by rapid equilibrium dialysis method; format: ADME, cell-free, Canis lupus familiaris; settings: read-out: PPB (converted)
[7] = Oral bioavailability in Sprague-Dawley rat at 3 mg/kg measured up to 24 hrs; format: ADME, organism-based; settings: in vivo
[8] = AUC in Beagle dog at 2 mg/kg, po measured up to 24 hrs; format: ADME, organism-based, Canis lupus familiaris; parameters: route oral, dose 2 mg/kg, time <=24; settings: in vivo
MC-38 [9] = experiment: Antitumor activity against mouse MC38 cells xenograted in po dosed humanized PD-1 mouse assessed as tumor growth inhibition administered twice for 14 days in combination with PD-1 antibody at 3 mg/kg, ip qod for 8 days by digital caliper method; format: functional, organism-based; settings: time 14.0 day
[10] = Half life in human liver microsomes; format: ADME, Microsome
[11] = molecular target: T2, Indoleamine 2,3-dioxygenase 1; experiment: Inhibition of human IDO1 expressed in Escherichia coli Rosetta using tryptophan as substrate incubated for 1 hr by methylene blue based assay
[12] = Clearance in C57BL/6 mouse at 3 mg/kg, po measured up to 24 hrs; format: ADME, organism-based; settings: in vivo
[13] = Protein binding in rat plasma by rapid equilibrium dialysis method; format: ADME, cell-free; settings: read-out: PPB (converted)
[14] = Protein binding in human plasma by rapid equilibrium dialysis method; format: ADME, cell-free; settings: read-out: PPB (converted)
[15] = Half life in C57BL/6 mouse at 3 mg/kg, po measured up to 24 hrs; format: ADME, organism-based; settings: in vivo
[16] = Clearance in Beagle dog at 2 mg/kg, po measured up to 24 hrs; format: ADME, organism-based, Canis lupus familiaris; settings: in vivo
[17] = molecular target: Tryptophan 2,3-dioxygenase (Homo sapiens, UniProt P48775); experiment: Inhibition of human TDO expressed in Escherichia coli Rosetta using tryptophan as substrate incubated for 1 hr by methylene blue based assay
[18] = AUC in Sprague-Dawley rat at 3 mg/kg, po measured up to 24 hrs; format: ADME, organism-based; parameters: route oral, dose 3 mg/kg, time <=24; settings: in vivo
[19] = Half life in Sprague-Dawley rat at 3 mg/kg, po measured up to 24 hrs; format: ADME, organism-based; settings: in vivo
MC-38 [20] = experiment: Antitumor activity against mouse MC38 cells xenograted in humanized PD-1 mouse assessed as tumor growth inhibition at 300 mg/kg, po bid for 14 days in combination with PD-1 antibody at 3 mg/kg, ip qod for 8 days by digital caliper method relative to control; format: functional; settings: MC-38, 336 h, time 14 day, read-out: TGI
[21] = molecular target: Indoleamine 2,3-dioxygenase 1 (Mus musculus) (UniProt P28776); experiment: In vivo inhibition of IDO1 in C57BL/6 mouse assessed as reduction in kynurenine level in plasma at 300 mg/kg, po administered as single dose measured after 2 hrs relative to control; format: functional, organism-based
[22] = molecular target: Voltage-gated inwardly rectifying potassium channel KCNH2 (Homo sapiens, UniProt Q12809); experiment: Inhibition of human ERG expressed in CHO-K1 cells at -90 mV holding potential by automated patch-clamp method; format: cell-based
Cytochrome P450 2C9 = Cytochrome P450 2C9 (Homo sapiens, UniProt P11712); experiment: Inhibition of CYP2C9 in human liver microsomes using tolbutamide as substrate incubated for 10 mins in presence of NADPH by UHPLC-MS/MS analysis; format: ADME
[23] = Half life in rat liver microsomes; format: ADME, Microsome
[24] = Toxicity in humanized PD-1 mouse xenografted with mouse MC38 cells assessed as effect on body weight at 150 to 600 mg/kg, po bid for 14 days in combination with PD-1 antibody at 3 mg/kg, ip qod for 8 days; format: organism-based; settings: in vivo, 336 h, dose 150-600 mg/kg, time 14 day
[25] = Cmax in C57BL/6 mouse at 3 mg/kg, po measured up to 24 hrs; format: ADME, organism-based; parameters: route oral, dose 3 mg/kg, time <=24; settings: in vivo
[26] = Cmax in Sprague-Dawley rat at 3 mg/kg, po measured up to 24 hrs; format: ADME, organism-based; parameters: route oral, dose 3 mg/kg, time <=24; settings: in vivo
[27] = Half life in Beagle dog at 2 mg/kg, po measured up to 24 hrs; format: ADME, organism-based, Canis lupus familiaris; settings: in vivo
[28] = Oral bioavailability in Beagle dog at 2 mg/kg measured up to 24 hrs; format: ADME, organism-based, Canis lupus familiaris; settings: in vivo
[29] = Oral bioavailability in C57BL/6 mouse at 3 mg/kg measured up to 24 hrs; format: ADME, organism-based; settings: in vivo
[30] = Cmax in Beagle dog at 2 mg/kg, po measured up to 24 hrs; format: ADME, organism-based, Canis lupus familiaris; parameters: route oral, dose 2 mg/kg, time <=24; settings: in vivo

Tryptophan 2,3-dioxygenase, sequence (P48775 whole entry): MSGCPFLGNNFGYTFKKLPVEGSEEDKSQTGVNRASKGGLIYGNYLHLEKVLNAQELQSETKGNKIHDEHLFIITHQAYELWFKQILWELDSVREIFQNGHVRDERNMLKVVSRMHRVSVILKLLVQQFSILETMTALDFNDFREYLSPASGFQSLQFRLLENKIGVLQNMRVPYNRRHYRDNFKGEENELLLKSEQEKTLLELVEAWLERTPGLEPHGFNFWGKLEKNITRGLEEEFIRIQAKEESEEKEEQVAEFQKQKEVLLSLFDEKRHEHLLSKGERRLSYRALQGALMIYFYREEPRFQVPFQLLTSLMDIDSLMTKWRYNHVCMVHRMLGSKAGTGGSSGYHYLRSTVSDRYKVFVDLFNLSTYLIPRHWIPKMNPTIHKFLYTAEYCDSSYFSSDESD
T2 sequence (P14902 whole entry): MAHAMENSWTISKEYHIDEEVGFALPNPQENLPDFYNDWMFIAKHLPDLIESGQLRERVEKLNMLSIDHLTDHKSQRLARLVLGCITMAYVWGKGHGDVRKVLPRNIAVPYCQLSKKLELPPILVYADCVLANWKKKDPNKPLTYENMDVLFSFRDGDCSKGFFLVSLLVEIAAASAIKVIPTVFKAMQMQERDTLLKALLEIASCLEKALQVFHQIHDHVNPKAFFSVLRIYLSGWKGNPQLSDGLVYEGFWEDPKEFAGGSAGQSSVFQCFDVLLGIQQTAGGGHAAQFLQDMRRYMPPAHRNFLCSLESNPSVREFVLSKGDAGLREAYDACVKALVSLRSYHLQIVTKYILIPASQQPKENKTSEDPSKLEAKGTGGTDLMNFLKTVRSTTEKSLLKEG
Indoleamine 2,3-dioxygenase 1 (Mus musculus), sequence (P28776 whole entry, looked up): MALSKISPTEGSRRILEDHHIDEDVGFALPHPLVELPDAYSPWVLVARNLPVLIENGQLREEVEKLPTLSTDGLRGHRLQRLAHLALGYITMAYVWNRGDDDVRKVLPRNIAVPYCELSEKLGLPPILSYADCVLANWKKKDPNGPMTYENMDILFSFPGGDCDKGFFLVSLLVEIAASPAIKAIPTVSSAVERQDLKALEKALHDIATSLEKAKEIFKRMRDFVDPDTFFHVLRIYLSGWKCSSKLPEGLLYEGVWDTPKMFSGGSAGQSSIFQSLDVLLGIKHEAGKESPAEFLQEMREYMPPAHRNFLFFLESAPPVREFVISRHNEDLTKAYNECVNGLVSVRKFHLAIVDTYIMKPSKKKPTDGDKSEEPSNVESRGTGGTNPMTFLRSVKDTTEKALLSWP
Cytochrome P450 3A4, sequence (P08684 whole entry): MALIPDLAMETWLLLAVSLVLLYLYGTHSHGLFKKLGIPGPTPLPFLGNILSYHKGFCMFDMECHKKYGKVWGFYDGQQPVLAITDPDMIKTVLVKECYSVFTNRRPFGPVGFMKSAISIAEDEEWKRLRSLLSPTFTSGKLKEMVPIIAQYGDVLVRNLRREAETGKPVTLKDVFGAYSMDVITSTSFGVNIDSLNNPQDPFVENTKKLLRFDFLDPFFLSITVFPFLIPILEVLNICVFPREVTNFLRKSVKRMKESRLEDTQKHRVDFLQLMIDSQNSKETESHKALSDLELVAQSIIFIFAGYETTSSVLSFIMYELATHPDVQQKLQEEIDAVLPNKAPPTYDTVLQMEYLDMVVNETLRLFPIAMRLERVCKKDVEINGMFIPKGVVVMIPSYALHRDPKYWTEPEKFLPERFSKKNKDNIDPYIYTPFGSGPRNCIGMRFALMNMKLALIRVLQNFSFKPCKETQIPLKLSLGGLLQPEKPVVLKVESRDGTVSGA
Cytochrome P450 2C19, sequence (P33261 whole entry): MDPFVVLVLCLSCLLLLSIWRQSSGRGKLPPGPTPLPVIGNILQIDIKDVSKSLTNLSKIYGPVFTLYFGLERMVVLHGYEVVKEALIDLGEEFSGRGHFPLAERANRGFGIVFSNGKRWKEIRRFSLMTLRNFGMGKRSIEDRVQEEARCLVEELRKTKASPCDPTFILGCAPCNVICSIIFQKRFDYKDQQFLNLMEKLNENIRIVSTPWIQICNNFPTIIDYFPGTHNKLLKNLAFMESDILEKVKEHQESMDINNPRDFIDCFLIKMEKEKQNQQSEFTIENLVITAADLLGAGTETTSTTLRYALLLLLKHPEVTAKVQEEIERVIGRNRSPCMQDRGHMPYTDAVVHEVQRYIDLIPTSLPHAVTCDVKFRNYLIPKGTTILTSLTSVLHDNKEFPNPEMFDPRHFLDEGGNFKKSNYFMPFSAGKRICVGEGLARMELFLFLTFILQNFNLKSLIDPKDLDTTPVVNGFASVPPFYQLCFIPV
Cytochrome P450 2D6, sequence (P10635 whole entry): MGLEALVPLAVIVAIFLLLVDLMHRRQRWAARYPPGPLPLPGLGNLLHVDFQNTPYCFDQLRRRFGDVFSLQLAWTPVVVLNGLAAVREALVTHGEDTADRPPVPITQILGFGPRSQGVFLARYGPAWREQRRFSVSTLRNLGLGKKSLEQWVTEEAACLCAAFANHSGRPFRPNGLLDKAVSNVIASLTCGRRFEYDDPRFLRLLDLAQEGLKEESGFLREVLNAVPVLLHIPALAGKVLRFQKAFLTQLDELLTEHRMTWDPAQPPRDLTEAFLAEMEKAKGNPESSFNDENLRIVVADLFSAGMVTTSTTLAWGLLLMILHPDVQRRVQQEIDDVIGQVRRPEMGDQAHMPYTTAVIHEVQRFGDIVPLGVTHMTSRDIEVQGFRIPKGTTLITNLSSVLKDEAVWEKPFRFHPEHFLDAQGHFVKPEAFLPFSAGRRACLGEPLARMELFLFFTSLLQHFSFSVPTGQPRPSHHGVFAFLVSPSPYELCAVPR
Voltage-gated inwardly rectifying potassium channel KCNH2, sequence (Q12809 whole entry): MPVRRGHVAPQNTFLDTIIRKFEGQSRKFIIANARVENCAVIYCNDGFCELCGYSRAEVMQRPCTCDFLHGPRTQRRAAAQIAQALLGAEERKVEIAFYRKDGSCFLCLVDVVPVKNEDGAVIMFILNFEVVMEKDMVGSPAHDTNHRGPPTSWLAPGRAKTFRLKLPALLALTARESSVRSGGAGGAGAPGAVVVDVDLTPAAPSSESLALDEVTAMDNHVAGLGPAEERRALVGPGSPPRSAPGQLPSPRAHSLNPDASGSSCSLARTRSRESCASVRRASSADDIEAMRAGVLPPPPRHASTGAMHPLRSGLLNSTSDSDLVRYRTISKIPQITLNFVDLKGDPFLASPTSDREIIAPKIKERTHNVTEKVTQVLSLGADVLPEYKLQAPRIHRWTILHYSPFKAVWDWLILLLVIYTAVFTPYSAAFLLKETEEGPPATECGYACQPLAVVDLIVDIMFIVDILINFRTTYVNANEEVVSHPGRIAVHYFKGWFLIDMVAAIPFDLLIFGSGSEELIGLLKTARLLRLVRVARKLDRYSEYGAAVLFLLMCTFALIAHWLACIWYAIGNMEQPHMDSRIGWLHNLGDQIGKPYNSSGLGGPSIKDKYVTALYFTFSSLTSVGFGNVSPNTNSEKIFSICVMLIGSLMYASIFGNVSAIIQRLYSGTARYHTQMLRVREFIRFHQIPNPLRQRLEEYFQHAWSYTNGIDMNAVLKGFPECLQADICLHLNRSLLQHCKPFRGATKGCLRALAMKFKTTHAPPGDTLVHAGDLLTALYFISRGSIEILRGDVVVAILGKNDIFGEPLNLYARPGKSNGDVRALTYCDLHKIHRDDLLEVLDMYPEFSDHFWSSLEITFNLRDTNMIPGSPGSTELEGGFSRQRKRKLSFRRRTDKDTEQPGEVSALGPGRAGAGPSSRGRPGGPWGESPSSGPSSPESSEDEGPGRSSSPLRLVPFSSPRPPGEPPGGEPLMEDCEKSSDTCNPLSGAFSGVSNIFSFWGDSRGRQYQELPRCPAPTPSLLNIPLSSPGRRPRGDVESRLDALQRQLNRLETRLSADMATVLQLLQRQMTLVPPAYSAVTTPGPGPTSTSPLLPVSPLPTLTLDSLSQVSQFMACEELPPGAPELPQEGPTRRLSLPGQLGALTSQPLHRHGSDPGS
Cytochrome P450 2C9, sequence (P11712 whole entry): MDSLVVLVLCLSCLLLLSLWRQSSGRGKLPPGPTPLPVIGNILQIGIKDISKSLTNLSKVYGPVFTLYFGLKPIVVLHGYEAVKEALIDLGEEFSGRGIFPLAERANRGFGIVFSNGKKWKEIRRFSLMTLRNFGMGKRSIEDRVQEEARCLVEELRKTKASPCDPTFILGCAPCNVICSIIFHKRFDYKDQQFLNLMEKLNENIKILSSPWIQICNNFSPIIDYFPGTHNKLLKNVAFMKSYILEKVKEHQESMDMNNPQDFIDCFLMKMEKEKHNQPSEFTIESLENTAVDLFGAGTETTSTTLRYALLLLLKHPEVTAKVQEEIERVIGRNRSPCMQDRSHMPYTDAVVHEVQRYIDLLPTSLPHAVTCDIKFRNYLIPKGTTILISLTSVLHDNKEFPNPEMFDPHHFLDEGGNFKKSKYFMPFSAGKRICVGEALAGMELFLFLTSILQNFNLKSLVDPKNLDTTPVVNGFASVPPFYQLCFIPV

INH (Cytochrome P450 1A2): > 10 µM
IC50 (Cytochrome P450 2C19): > 10000 nM
clearance [3]: 16.7 mL/min/kg
AUC at 24 h [4]: 358 ng·h/mL
IC50 [5]: 45 nM
INH (Cytochrome P450 3A4): > 10 µM
INH (Cytochrome P450 2D6): > 10 µM
fraction unbound [6]: 0.04
bioavailability [7]: 58.8%
AUC at 24 h [8]: 3630 ng·h/mL
half-life [10]: 5.81 h
IC50 [11]: 63 nM
clearance [12]: 61.2 mL/min/kg
fraction unbound [13]: 0.076
fraction unbound [14]: 0.036
half-life [15]: 1.21 h
clearance [16]: 9.3 mL/min/kg
IC50 [17]: 62500 nM
AUC at 24 h [18]: 1530 ng·h/mL
half-life [19]: 6.14 h
inhibition [21]: 87.8%
INH (Cytochrome P450 2C9): > 10 µM
half-life [23]: 1.56 h
Cmax [25]: 127 ng/mL
Cmax [26]: 179 ng/mL
half-life [27]: 3.04 h
bioavailability [28]: 102%
bioavailability [29]: 44%
Cmax [30]: 742 ng/mL
Structure (SMILES): NS(=O)(=O)N1CCC(C(=O)/C(=N/O)Nc2ccc(F)c(Br)c2)CC1
inhibition in vivo at 150 mg/kg (MC-38 [1]): 60.3%
inhibition in vivo at 600 mg/kg (MC-38 [2]): 86.8%
TGI (MC-38 [9]): Dose-dependent effect
inhibition in vivo at 300 mg/kg (MC-38 [20]): 71.7%
INH [22]: > 30 µM
Activity [24]: Non-Toxic

IC50 [5]: 578 nM
IC50 [11]: 497 nM
IC50 [17]: > 100000 nM
Structure (SMILES): O/N=C(/CC1CCCCC1)Nc1ccc(F)c(Br)c1

IC50 [5]: 1020 nM
IC50 [11]: 149 nM
IC50 [17]: > 100000 nM
Structure (SMILES): O=C(/C(=N/O)Nc1ccc(F)c(Br)c1)C1CCN(c2ccccc2)CC1

IC50 [5]: 1430 nM
IC50 [11]: 410 nM
IC50 [17]: 80000 nM
Structure (SMILES): O=C(/C(=N/O)Nc1ccc(F)c(Br)c1)c1ccccc1

IC50 [5]: 54 nM
IC50 [11]: 40 nM
IC50 [17]: 58000 nM
Structure (SMILES): O=C(/C(=N/O)Nc1ccc(F)c(Br)c1)C1CCN(C(=O)Nc2ccccc2)CC1

IC50 [5]: 21 nM
IC50 [11]: 198 nM
IC50 [17]: 58700 nM
Structure (SMILES): NS(=O)(=O)NC[C@H]1CC[C@H](C(=O)/C(=N/O)Nc2ccc(F)c(Br)c2)CC1

IC50 [5]: 291 nM
IC50 [11]: 102 nM
IC50 [17]: > 100000 nM
Structure (SMILES): O=C(/C(=N/O)Nc1ccc(F)c(Br)c1)[C@H]1CC[C@H](NS(=O)(=O)Nc2ccccc2)CC1

IC50 [5]: 63 nM
IC50 [11]: 132 nM
IC50 [17]: 79300 nM
Structure (SMILES): O=C(/C(=N/O)Nc1ccc(F)c(Br)c1)C1CCCCC1

IC50 [5]: 1770 nM
IC50 [11]: 51 nM
IC50 [17]: 11800 nM
Structure (SMILES): O=C(/C(=N/O)Nc1ccc(F)c(Br)c1)c1cncs1

IC50 [5]: 262 nM
IC50 [11]: 24 nM
IC50 [17]: > 100000 nM
Structure (SMILES): O=C(/C(=N/O)Nc1ccc(F)c(Br)c1)C1CCN(S(=O)(=O)NCc2ccccc2)CC1
